Assay results taken from US4725683A, “Fluorophenoxyphenoxypropionates and derivatives thereof” (The Dow Chemical Company, priority 1985, dated 1988).

What was measured:
Type in all cases: in vivo
Green Foxtail = test: Postemergent activity
Method: (§1) Representative compositions of the present invention were evaluated for the postemergence control of species of plants listed in Table A. In these evaluations, pots of the plant species listed in Table A, grown to a height of about 10 cms, were used. […] The spray compositions were made by mixing the active ingredient in acetone to 1/2 the final volume, i.e., twice the final concentration. An equal amount of water was added to the active ingredient/acetone mixture wherein the water contained 0.1 percent by weight of TWEEN® 200 surfactant. The application to the plants was made to the point of run-off and was carried out with conventional spraying equipment. […] Thereafter, the pots were maintained under conditions conducive for plant growth.

Blackgrass = test: Postemergent activity
Method: as §1

Yellow Foxtail = test: Postemergent activity
Method: as §1

Cheatgrass = test: Postemergent activity
Method: as §1

Barley = test: Postemergent activity
Method: as §1

Wild Oats [1] = test: Postemergent activity; conditions: Avena fatua, post-emergence, 336 h
Method: (§2) Representative compositions of the present invention were evaluated for the postemergence control of species of plants listed in Table A. In these evaluations, pots of the plant species listed in Table A, grown to a height of about 10 cms, were used. Aqueous spray compositions, containing various amounts of 2-[4-(2-fluoro-4-trifluoromethylphenoxy)-phenoxy]propionic acid methy ester, i.e., 125 ppm, 62.5 ppm, 31.25 ppm, 15.6 ppm, 7.8 ppm and 3.9 ppm, respectively, were applied to separate pots. The spray compositions were made by mixing the active ingredient in acetone to 1/2 the final volume, i.e., twice the final concentration. An equal amount of water was added to the active ingredient/acetone mixture wherein the water contained 0.1 percent by weight of TWEEN® 200 surfactant. The application to the plants was made to the point of run-off and was carried out with conventional spraying equipment. Other pots were sprayed with similar compositions containing no toxicant to serve as controls. Thereafter, the pots were maintained under conditions conducive for plant growth. Two weeks after treatment, the pots were examined for plant growth and evaluated on a scale of 0 to 100 where 0 represents no effect and 100 represents complete kill. The results of the examination of the treated pots are set forth below in Table A.
(§3) Substantially the same procedures as those described in Example A were repeated except that the active ingredients were 2-[4-(4-chloro-2-fluorophenoxy)phenoxy]propionic acid; methyl ester and its R-enantiomer and 2-(4-(4-bromo-2-fluorophenoxy)phenoxy propionic acid; methyl ester and its R enantiomer. The results are listed below in Table B.
(§4) In further operations employing the above general procedures and the indicated test compounds the following results were obtained: […]

Wheat [2] = test: Postemergent activity; conditions: Triticum aestivum, post-emergence, 336 h, read-out: % Control
Method: as §2, §3, §4

Wild Oats [3] = test: Preemergent activity; conditions: Avena fatua, pre-emergence, read-out: Preemergence Control
Method in brief: (§5)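 Test compound was dissolved in acetone at twice the final concentration, then mixed with an equal volume of water containing 0.1% w/w Tween-20. The resulting emulsion was sprayed uniformly at a predetermined rate onto sandy loam seed beds sown with each species. Controls received acetone–Tween-20–water only.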

Wheat [4] = test: Preemergent activity; conditions: Triticum aestivum, pre-emergence, read-out: Preemergence Control
Method in brief: as §5

Crabgrass = test: Preemergent activity
Method in brief: as §5

Johnson Grass = test: Preemergent activity; conditions: Sorghum halepense, pre-emergence, read-out: Preemergence Control
Method in brief: as §5

`COC(=O)C(C)Oc1ccc(Oc2ccc(Br)cc2F)cc1` (racemic) [Example 4-Bromo-, 2-[4-(4-bromo-2-fluorophenoxy)phenoxy]propionic acid methyl ester] was tested, and the “% Control” value (Green Foxtail; 0.2 ppm) was 20%, the “% Control” value (Green Foxtail; 0.4 ppm) was 90% and the “% Control” value (Green Foxtail; 0.8 ppm) was 90%. The “% Control” value (Green Foxtail; 1.5 ppm) was 100%, the “% Control” value (Green Foxtail; 3.1 ppm) was 100% and the “% Control” value (Green Foxtail; 6.25 ppm) was 100%. The “% Control” value (Green Foxtail; 12.5 ppm) was 100%, the “% Control” value (Green Foxtail; 25 ppm) was 100% and the “% Control” value (Blackgrass; 0.2 ppm) was 0%. The “% Control” value (Blackgrass; 0.4 ppm) was 10%, the “% Control” value (Blackgrass; 0.8 ppm) was 30% and the “% Control” value (Blackgrass; 1.5 ppm) was 50%. The “% Control” value (Blackgrass; 3.1 ppm) was 70%, the “% Control” value (Blackgrass; 6.25 ppm) was 99% and the “% Control” value (Blackgrass; 12.5 ppm) was 100%. The “% Control” value (Blackgrass; 25 ppm) was 100%, the “% Control” value (Yellow Foxtail; 0.2 ppm) was 0% and the “% Control” value (Yellow Foxtail; 0.4 ppm) was 0%. For the same compound, the “% Control” value (Yellow Foxtail; 0.8 ppm) was 20%, the “% Control” value (Yellow Foxtail; 1.5 ppm) was 50% and the “% Control” value (Yellow Foxtail; 3.1 ppm) was 80%. The “% Control” value (Yellow Foxtail; 6.25 ppm) was 100%, the “% Control” value (Yellow Foxtail; 12.5 ppm) was 100% and the “% Control” value (Yellow Foxtail; 25 ppm) was 100%. For the same compound, the “% Control” value (Cheatgrass; 0.2 ppm) was 0%, the “% Control” value (Cheatgrass; 0.4 ppm) was 0% and the “% Control” value (Cheatgrass; 0.8 ppm) was 0%. For the same compound, the “% Control” value (Cheatgrass; 1.5 ppm) was 0%, the “% Control” value (Cheatgrass; 3.1 ppm) was 0% and the “% Control” value (Cheatgrass; 6.25 ppm) was 0%. The “% Control” value (Cheatgrass; 12.5 ppm) was 0%, the “% Control” value (Cheatgrass; 25 ppm) was 0% and the “% Control” value (Barley; 3.9 ppm) was 0%. For the same compound, the “% Control” value (Barley; 7.8 ppm) was 0%, the “% Control” value (Barley; 15.6 ppm) was 0% and the “% Control” value (Barley; 31.25 ppm) was 0%. For the same compound, the “% Control” value (Barley; 62.5 ppm) was 10%, the “% Control” value (Barley; 125 ppm) was 10% and the “% Control” value (Barley; 250 ppm) was 10%. The “% Control” value (Barley; 500 ppm) was 30%, the pest or weed control at 3.9 ppm (Wild Oats [1]) was 70% and the pest or weed control at 7.8 ppm (Wild Oats [1]; read-out: % Control) was 80%. For the same compound, the pest or weed control at 15.6 ppm (Wild Oats [1]; read-out: % Control) was 100%, the pest or weed control at 31.25 ppm (Wild Oats [1]; read-out: % Control) was 100% and the pest or weed control at 62.5 ppm (Wild Oats [1]; read-out: % Control) was 100%. The pest or weed control at 125 ppm (Wild Oats [1]; read-out: % Control) was 95%, the pest or weed control at 250 ppm (Wild Oats [1]; read-out: % Control) was 100% and the pest or weed control at 500 ppm (Wild Oats [1]; 500 ppm, read-out: % Control) was 100%. For the same compound, the plant injury at 3.9 ppm (Wheat [2]) was 0%, the plant injury at 7.8 ppm (Wheat [2]) was 0% and the plant injury at 15.6 ppm (Wheat [2]) was 0%. For the same compound, the plant injury at 31.25 ppm (Wheat [2]) was 0%, the plant injury at 62.5 ppm (Wheat [2]) was 0% and the plant injury at 125 ppm (Wheat [2]) was 0%. It also gave a plant injury at 250 ppm (Wheat [2]) of 0% and a plant injury at 500 ppm (Wheat [2]; 500 ppm) of 0%.
In the case of `COC(=O)C(C)Oc1ccc(Oc2ccc(C(F)(F)F)cc2F)cc1` (stereo not drawn) [2-[4-(2-fluoro-4-trifluoromethylphenoxy)phenoxy]propionic acid methyl ester], the “% Control” value (Yellow Foxtail; 3.9 ppm) was 35%, the “% Control” value (Yellow Foxtail; 7.8 ppm) was 100% and the “% Control” value (Yellow Foxtail; 15.6 ppm) was 100%. The “% Control” value (Yellow Foxtail; 31.25 ppm) was 100%, the “% Control” value (Yellow Foxtail; 62.5 ppm) was 100% and the “% Control” value (Yellow Foxtail; 125 ppm) was 100%. For the same compound, the pest or weed control at 18 g/ha (Wild Oats [3]; 0.018 kgs/hectare) was 0%, the pest or weed control at 35 g/ha (Wild Oats [3]; 0.035 kgs/hectare) was 20% and the pest or weed control at 70 g/ha (Wild Oats [3]; 0.07 kgs/hectare) was 90%. It also gave a pest or weed control at 114 g/ha (Wild Oats [3]; 0.114 kgs/hectare) of 100%, a pest or weed control at 280 g/ha (Wild Oats [3]; 0.28 kgs/hectare) of 100% and a plant injury at 18 g/ha (Wheat [4]; 0.018 kgs/hectare) of 0%. The plant injury at 35 g/ha (Wheat [4]; 0.035 kgs/hectare) was 20%, the plant injury at 70 g/ha (Wheat [4]; 0.07 kgs/hectare) was 90% and the plant injury at 114 g/ha (Wheat [4]; 0.114 kgs/hectare) was 100%. The plant injury at 280 g/ha (Wheat [4]; 0.28 kgs/hectare) was 100%, the “Preemergence Control” value (Crabgrass; 0.018 kgs/hectare) was 40% and the “Preemergence Control” value (Crabgrass; 0.035 kgs/hectare) was 100%. The “Preemergence Control” value (Crabgrass; 0.07 kgs/hectare) was 100%, the “Preemergence Control” value (Crabgrass; 0.114 kgs/hectare) was 100% and the “Preemergence Control” value (Crabgrass; 0.28 kgs/hectare) was 100%. The pest or weed control at 18 g/ha (Johnson Grass; 0.018 kgs/hectare) was 20%, the pest or weed control at 35 g/ha (Johnson Grass; 0.035 kgs/hectare) was 60% and the pest or weed control at 70 g/ha (Johnson Grass; 0.07 kgs/hectare) was 90%. It also gave a pest or weed control at 114 g/ha (Johnson Grass; 0.114 kgs/hectare) of 100%, a pest or weed control at 280 g/ha (Johnson Grass; 0.28 kgs/hectare) of 100% and a pest or weed control at 3.9 ppm (Wild Oats [1]) of 0%. It also gave a pest or weed control at 7.8 ppm (Wild Oats [1]; read-out: % Control) of 0%, a pest or weed control at 15.6 ppm (Wild Oats [1]; read-out: % Control) of 60% and a pest or weed control at 31.25 ppm (Wild Oats [1]; read-out: % Control) of 100%. The pest or weed control at 62.5 ppm (Wild Oats [1]; read-out: % Control) was 100%, the pest or weed control at 125 ppm (Wild Oats [1]; read-out: % Control) was 100% and the plant injury at 3.9 ppm (Wheat [2]) was 0%. The plant injury at 7.8 ppm (Wheat [2]) was 60%, the plant injury at 15.6 ppm (Wheat [2]) was 90% and the plant injury at 31.25 ppm (Wheat [2]) was 100%. The plant injury at 62.5 ppm (Wheat [2]) was 100% and the plant injury at 125 ppm (Wheat [2]) was 100%.
In the case of `COC(=O)[C@@H](C)Oc1ccc(Oc2ccc(Br)cc2F)cc1` [4-Bromo-(R-Enantiomer), R enantiomer of 2-[4-(4-bromo-2-fluorophenoxy)phenoxy]propionic acid methyl ester], the “% Control” value (Green Foxtail; 0.1 ppm) was 0%, the “% Control” value (Green Foxtail; 0.2 ppm) was 50% and the “% Control” value (Green Foxtail; 0.4 ppm) was 100%. For the same compound, the “% Control” value (Green Foxtail; 0.8 ppm) was 100%, the “% Control” value (Green Foxtail; 1.5 ppm) was 100% and the “% Control” value (Green Foxtail; 3.1 ppm) was 100%. For the same compound, the “% Control” value (Green Foxtail; 6.3 ppm) was 100%, the “% Control” value (Green Foxtail; 12.5 ppm) was 100% and the “% Control” value (Blackgrass; 0.1 ppm) was 0%. The “% Control” value (Blackgrass; 0.2 ppm) was 0%, the “% Control” value (Blackgrass; 0.4 ppm) was 50% and the “% Control” value (Blackgrass; 0.8 ppm) was 60%. The “% Control” value (Blackgrass; 1.5 ppm) was 90%, the “% Control” value (Blackgrass; 3.1 ppm) was 90% and the “% Control” value (Blackgrass; 6.3 ppm) was 100%. The “% Control” value (Blackgrass; 12.5 ppm) was 100%, the “% Control” value (Yellow Foxtail; 0.1 ppm) was 0% and the “% Control” value (Yellow Foxtail; 0.2 ppm) was 0%. The “% Control” value (Yellow Foxtail; 0.4 ppm) was 0%, the “% Control” value (Yellow Foxtail; 0.8 ppm) was 20% and the “% Control” value (Yellow Foxtail; 1.5 ppm) was 60%. The “% Control” value (Yellow Foxtail; 3.1 ppm) was 100%, the “% Control” value (Yellow Foxtail; 6.3 ppm) was 100% and the “% Control” value (Yellow Foxtail; 12.5 ppm) was 100%. The “% Control” value (Cheatgrass; 0.1 ppm) was 0%, the “% Control” value (Cheatgrass; 0.2 ppm) was 0% and the “% Control” value (Cheatgrass; 0.4 ppm) was 0%. The “% Control” value (Cheatgrass; 0.8 ppm) was 0%, the “% Control” value (Cheatgrass; 1.5 ppm) was 0% and the “% Control” value (Cheatgrass; 3.1 ppm) was 0%. For the same compound, the “% Control” value (Cheatgrass; 6.3 ppm) was 0%, the “% Control” value (Cheatgrass; 12.5 ppm) was 0% and the “% Control” value (Barley; 1.9 ppm) was 0%. The “% Control” value (Barley; 3.9 ppm) was 0%, the “% Control” value (Barley; 7.8 ppm) was 0% and the “% Control” value (Barley; 15.6 ppm) was 0%. For the same compound, the “% Control” value (Barley; 31.25 ppm) was 0%, the “% Control” value (Barley; 62.5 ppm) was 95% and the “% Control” value (Barley; 125 ppm) was 90%. For the same compound, the “% Control” value (Barley; 250 ppm) was 100%, the pest or weed control at 1.9 ppm (Wild Oats [1]; 1.9 ppm) was 60% and the pest or weed control at 3.9 ppm (Wild Oats [1]) was 80%. For the same compound, the pest or weed control at 7.8 ppm (Wild Oats [1]; read-out: % Control) was 80%, the pest or weed control at 15.6 ppm (Wild Oats [1]; read-out: % Control) was 90% and the pest or weed control at 31.25 ppm (Wild Oats [1]; read-out: % Control) was 90%. It also gave a pest or weed control at 62.5 ppm (Wild Oats [1]; read-out: % Control) of 100%, a pest or weed control at 125 ppm (Wild Oats [1]; read-out: % Control) of 100% and a pest or weed control at 250 ppm (Wild Oats [1]; read-out: % Control) of 100%. The plant injury at 1.9 ppm (Wheat [2]; 1.9 ppm) was 0%, the plant injury at 3.9 ppm (Wheat [2]) was 0% and the plant injury at 7.8 ppm (Wheat [2]) was 0%. The plant injury at 15.6 ppm (Wheat [2]) was 0%, the plant injury at 31.25 ppm (Wheat [2]) was 0% and the plant injury at 62.5 ppm (Wheat [2]) was 0%. It also gave a plant injury at 125 ppm (Wheat [2]) of 70% and a plant injury at 250 ppm (Wheat [2]) of 100%.
